From patent US11597724B2, “Herbicidally active 3-phenylisoxazoline-5-carboxamides of tetrahydro and dihydrofuran carboxylic acids and esters” (Bayer Aktiengesellschaft, priority 2017, dated 2023)

What was measured:
Type in all cases: in vivo
[1] = test system: Stellaria media; test: Pre-emergence herbicidal activity against STEME; conditions: dosage 80 g/ha; for pest or weed control at 80 g/ha: Stellaria media, 504 h
Description: (§1) 1. Pre-Emergence Herbicidal Action and Crop Plant Compatibility Seeds of monocotyledonous and dicotyledonous weed plants and crop plants are placed in plastic or wood fiber pots and covered with soil. The compounds of the invention, formulated in the form of wettable powders (WP) or as emulsion concentrates (EC), are then applied onto the surface of the covering soil as aqueous suspension or emulsion with addition of 0.5% additive at a water application rate of 600 l/ha (converted). After the treatment, the pots are placed in a greenhouse and kept under good growth conditions for the trial plants. After about 3 weeks, the effect of the preparations is scored visually in comparison with untreated controls as percentages. For example, 100% activity=the plants have died, 0% activity=like control plants. STEME: Stellaria media VERPE: Veronica persica

[2] = test system: Amaranthus retroflexus; test: Pre-emergence herbicidal activity against AMARE; conditions: dosage 80 g/ha; for pest or weed control at 80 g/ha: Amaranthus retroflexus, 504 h
Description: as §1, with “AMARE: Amaranthus retroflexus AVEFA: Avena fatua” for “STEME: Stellaria media VERPE: Veronica persica”

[3] = test system: Viola tricolor; test: Post-emergence herbicidal activity against VIOTR; conditions: dosage 320 g/ha, rated about 3 weeks after treatment; for pest or weed control at 320 g/ha: Viola tricolor, 504 h
Summary of the method: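 Greenhouse plants in sandy loam treated at one-leaf stage, 2 to 3 weeks after sowing, by spraying WP or EC formulations with 0.5% additive at 600 l/ha water. Activity rated visually after about 3 weeks versus untreated controls, 100% = plants dead, 0% = like control.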

[4] = test system: Amaranthus retroflexus; test: Post-emergence herbicidal activity against AMARE; conditions: Amaranthus retroflexus, 504 h, dosage 320 g/ha, rated about 3 weeks after treatment
Summary of the method: (§2)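 Greenhouse pots of sandy loam; plants sprayed at one-leaf stage, 2 to 3 weeks after sowing, with WP or EC formulations in water plus 0.5% additive at 600 l/ha. Activity rated visually after about 3 weeks against untreated controls (100% = plants dead, 0% = like control).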

[5] = test system: Avena fatua; test: Post-emergence herbicidal activity against AVEFA; conditions: dosage 320 g/ha, rated about 3 weeks after treatment; for pest or weed control at 320 g/ha: Avena fatua, 504 h
Summary of the method: as §2

[6] = test system: Polygonum convolvulus; test: Pre-emergence herbicidal activity against POLCO; conditions: dosage 80 g/ha; for pest or weed control at 80 g/ha: Fallopia convolvulus, 504 h
Description: as §1, with “POLCO: Polygonum convolvulus SETVI: Setaria viridis” for “STEME: Stellaria media VERPE: Veronica persica”

[7] = test system: Alopecurus myosuroides; test: Pre-emergence herbicidal activity against ALOMY; conditions: dosage 80 g/ha, scored visually after about 3 weeks vs untreated controls (100% = plants have died, 0% = like control plants); for pest or weed control at 80 g/ha: Alopecurus myosuroides, 504 h
Description: as §1, with “ABUTH: Abutilon theophrasti ALOMY: Alopecurus myosuroides” for “STEME: Stellaria media VERPE: Veronica persica”

[8] = test system: Polygonum convolvulus; test: Post-emergence herbicidal activity against POLCO; conditions: dosage 320 g/ha, rated about 3 weeks after treatment; for pest or weed control at 320 g/ha: Fallopia convolvulus, 504 h
Summary of the method: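 Greenhouse weeds in sandy loam were sprayed at the one-leaf stage, 2–3 weeks after sowing, with WP or EC formulations plus 0.5% additive at 600 l/ha water. About 3 weeks later, damage was rated visually against untreated controls, where 100% means plants dead and 0% means like control.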

Compound	pest or weed control at 80 g/ha [1] [%]	pest or weed control at 80 g/ha [2] [%]	pest or weed control at 320 g/ha [3] [%]	pest or weed control at 320 g/ha [4] [%]	pest or weed control at 320 g/ha [5] [%]	pest or weed control at 80 g/ha [6] [%]	pest or weed control at 80 g/ha [7] [%]	pest or weed control at 320 g/ha [8] [%]	Pre-emergence herbicidal activity against STEME in % [1] [%]	Pre-emergence herbicidal activity against AMARE in % [2] [%]	Post-emergence herbicidal activity against VIOTR in % [3] [%]	Post-emergence herbicidal activity against POLCO in % [8] [%]	Post-emergence herbicidal activity against AVEFA in % [5] [%]	Pre-emergence herbicidal activity against POLCO in % [6] [%]	Pre-emergence herbicidal activity against ALOMY in % [7] [%]
C=C[C@]1(C(=O)N[C@H]2CO[C@@H](C(=O)OCC)C2)CC(c2cc(F)cc(F)c2)=NO1 (mixture of isomers) [I-35, ethyl cis-4-[[(5S)-3-(3,5-difluorophenyl)-5-vinyl-4H-isoxazole-5-carbonyl]amino]tetrahydrofuran-2-carboxylate]	100	100	80	90	100	100	100								
C=C[C@]1(C(=O)N[C@H]2CO[C@@H](C(=O)OCc3ccccc3)C2)CC(c2cc(F)cc(F)c2)=NO1 (mixture of isomers) [I-37, benzyl cis-4-[[(5S)-3-(3,5-difluorophenyl)-5-vinyl-4H-isoxazole-5-carbonyl]amino]tetrahydrofuran-2-carboxylate]	100	100	80	80	100	100	100								
C=C[C@]1(C(=O)N[C@H]2CO[C@@H](C(=O)OC(C)(C)C)C2)CC(c2cc(F)cc(F)c2)=NO1 (mixture of isomers) [I-38, tert-butyl cis-4-[[(5S)-3-(3,5-difluorophenyl)-5-vinyl-4H-isoxazole-5-carbonyl]amino]tetrahydrofuran-2-carboxylate]	100	100	80	100	90	100	100								
CCOC(=O)[C@H]1C[C@@H](NC(=O)C2(C)CC(c3cccc(F)c3)=NO2)CO1 (mixture of isomers) [I-30, ethyl cis-4-[[(5RS)-3-(3-fluorophenyl)-5-methyl-4H-isoxazole-5-carbonyl]amino]tetrahydrofuran-2-carboxylate]	90	80			100	90	100	80							
CC(C)OC(=O)[C@H]1C[C@@H](NC(=O)C2(C)CC(c3cccc(F)c3)=NO2)CO1 (mixture of isomers) [I-32, isopropyl cis-4-[[(5RS)-3-(3-fluorophenyl)-5-methyl-4H-isoxazole-5-carbonyl]amino]tetrahydrofuran-2-carboxylate]	90	90		80	100	90	100	80							
CC(C)(C)OC(=O)[C@H]1C[C@@H](NC(=O)C2(C)CC(c3cccc(F)c3)=NO2)CO1 (mixture of isomers) [I-33, tert-butyl cis-4-[[(5RS)-3-(3-fluorophenyl)-5-methyl-4H-isoxazole-5-carbonyl]amino]tetrahydrofuran-2-carboxylate]	100			90	100	90	100	80							
COC(=O)[C@H]1C[C@@H](NC(=O)C2(C)CC(c3cc(F)cc(F)c3)=NO2)CO1 (relative stereo) [I-01, methyl cis-4-[[3-(3,5-difluorophenyl)-5-methyl-4H-isoxazole-5-carbonyl]amino]tetrahydrofuran-2-carboxylate]	90		90	80	100	80	100	80							
COC(=O)C1COCC1NC(=O)C1(C)CC(c2cc(F)cc(F)c2)=NO1 (stereo not shown) [I-19, methyl 4-[[3-(3,5-difluorophenyl)-5-methyl-4H-isoxazole-5-carbonyl]amino]tetrahydrofuran-3-carboxylate]	80		80	90	100	90	90	80							
C=C[C@]1(C(=O)NC2COCC2C(=O)OC)CC(c2cc(F)cc(F)c2)=NO1 (stereo partly drawn) [I-26, methyl 4-[[(5S)-3-(3,5-difluorophenyl)-5-vinyl-4H-isoxazole-5-carbonyl]amino]tetrahydrofuran-3-carboxylate]	100	100	80	80	90		100								
COC(=O)C1COCC1NC(=O)C1(OC)CC(c2cc(F)cc(F)c2)=NO1 (stereo not shown) [I-27, methyl 4-[[3-(3,5-difluorophenyl)-5-methoxy-4H-isoxazole-5-carbonyl]amino]tetrahydrofuran-3-carboxylate]	90	90	80		90	80	90	80							
COC(=O)C1COCC1NC(=O)[C@@]1(C)CC(c2cc(F)cc(F)c2)=NO1 (stereo partly drawn) [I-28, methyl 4-[[(5R)-3-(3,5-difluorophenyl)-5-methyl-4H-isoxazole-5-carbonyl]amino]tetrahydrofuran-3-carboxylate]	100	90	80	80	100		100	80							
COC(=O)C1COCC1NC(=O)C1(OC)CC(c2cc(Cl)cc(Cl)c2)=NO1 (stereo not shown) [I-29, methyl 4-[[3-(3,5-dichlorophenyl)-5-methoxy-4H-isoxazole-5-carbonyl]amino]tetrahydrofuran-3-carboxylate]	90	90	80		90	100	90	80							
COC(=O)C1CC(NC(=O)C2(C(C)(F)F)CC(c3cc(F)cc(F)c3)=NO2)CO1 (stereo not shown) [I-49]									100	100	80	80	80	100	100
